We go through 9 compounds from PubChem BioAssay (NCI).

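Where inhibition never reached the appropriate level, the endpoint shown equals the highest concentration tested. Otherwise, values were interpolated linearly from a five-concentration, 48-hour dose response in 96-well plates. Abbreviation: GI50, concentration required for 50% inhibition of growth. TGI denotes the concentration required for complete inhibition of growth.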

Test systems include LOX IMVI melanoma; SW-620 colon; RPMI-8226 leukemia; OVCAR-3 ovarian; SF-539 CNS; NCI/ADR-RES ovarian; NCI-H226 lung; SK-MEL-2 melanoma.
Assay in all cases: inhibition of tumour cell growth, NCI panel, 48 h

Consider `O=C(Oc1ccc([N+](=O)[O-])cc1)N1CCC(C(O)(c2ccc3c(c2)OCO3)c2ccc3c(c2)OCO3)CC1`, for which the GI50 in the experiment with LOX IMVI melanoma, in the experiment with SW-620 colon, in the experiment on RPMI-8226 leukemia, with OVCAR-3 ovarian, in the experiment on SF-539 CNS and with NCI/ADR-RES ovarian was more than 100 µM throughout. Besides, the GI50 in the experiment on NCI-H226 lung and in the experiment with SK-MEL-2 melanoma was more than 100 µM each time. For the same compound, the TGI with LOX IMVI melanoma, with SW-620 colon, in the experiment on RPMI-8226 leukemia, in the experiment with OVCAR-3 ovarian, in the experiment with SF-539 CNS and in the experiment on NCI/ADR-RES ovarian was more than 100 µM in each case. In addition, the TGI in the experiment on NCI-H226 lung and with SK-MEL-2 melanoma was more than 100 µM in each case.

For the compound `O=C1C(Nc2ccccn2)=C(I)C(=O)c2ncccc21`, the GI50 with LOX IMVI melanoma was 0.305 µM; with SW-620 colon, 0.33 µM; in the experiment with RPMI-8226 leukemia, 1.19 µM; in the experiment with OVCAR-3 ovarian, 0.378 µM; in the experiment on SF-539 CNS, 1.37 µM; in the experiment on NCI/ADR-RES ovarian it was 1.25 µM. Moreover, the GI50 in the experiment on NCI-H226 lung was 1.43 µM; in the experiment on SK-MEL-2 melanoma, 1.76 µM. For the same compound, the TGI is 1.66 µM in the experiment on LOX IMVI melanoma; 1.63 µM in the experiment with SW-620 colon; 3.73 µM with RPMI-8226 leukemia; 1.6 µM in the experiment with OVCAR-3 ovarian; 2.69 µM with SF-539 CNS; 4.6 µM with NCI/ADR-RES ovarian. For the same compound, the TGI in the experiment with NCI-H226 lung came to 3.08 µM; with SK-MEL-2 melanoma, 3.51 µM.

As for `COCCOC(C)C(/C=N/NC(N)=S)=N/NC(N)=S` (configuration not stated), the TGI in the experiment on LOX IMVI melanoma, in the experiment with SW-620 colon, in the experiment on RPMI-8226 leukemia, in the experiment on SF-539 CNS, with NCI/ADR-RES ovarian and in the experiment with NCI-H226 lung was more than 100 µM throughout. In the experiment with SK-MEL-2 melanoma, this compound registered a TGI of more than 100 µM. The GI50 in the experiment on SW-620 colon is more than 100 µM; with RPMI-8226 leukemia, 0.0725 µM; in the experiment with OVCAR-3 ovarian, 0.0252 µM; with SF-539 CNS, more than 100 µM; in the experiment on NCI/ADR-RES ovarian, 0.0732 µM; in the experiment with NCI-H226 lung, more than 100 µM. Further, the GI50 in the experiment with SK-MEL-2 melanoma is more than 100 µM.

For the compound `C=CCSc1n[nH]c(-c2cccs2)n1`, the GI50 in the experiment on LOX IMVI melanoma, in the experiment on SW-620 colon, with RPMI-8226 leukemia, in the experiment on OVCAR-3 ovarian, with SF-539 CNS and in the experiment with NCI/ADR-RES ovarian was more than 100 µM throughout. The GI50 with NCI-H226 lung and with SK-MEL-2 melanoma was more than 100 µM throughout. In addition, the TGI with LOX IMVI melanoma, in the experiment with SW-620 colon, with RPMI-8226 leukemia, with OVCAR-3 ovarian, in the experiment with SF-539 CNS and in the experiment on NCI/ADR-RES ovarian was more than 100 µM each time. Also, the TGI in the experiment with NCI-H226 lung and with SK-MEL-2 melanoma was more than 100 µM throughout.

For the compound `CN(C)CCCC1(c2ccc(F)cc2)OCc2cc(-c3ccc4cc[nH]c4c3)ccc21` (configuration not stated), the GI50 is 1.78 µM with LOX IMVI melanoma; 1.83 µM with SW-620 colon; 2.5 µM with RPMI-8226 leukemia; 1.74 µM with OVCAR-3 ovarian; 1.78 µM in the experiment with SF-539 CNS; 2.21 µM with NCI/ADR-RES ovarian. Further, the figures for the GI50 with NCI-H226 lung and in the experiment on SK-MEL-2 melanoma were 10.7 µM and 2.19 µM, respectively. The TGI turned out to be 3.27 µM with LOX IMVI melanoma; 3.64 µM in the experiment on SW-620 colon; 6.04 µM with RPMI-8226 leukemia; 3.35 µM in the experiment on OVCAR-3 ovarian; 3.23 µM with SF-539 CNS; 5.31 µM in the experiment on NCI/ADR-RES ovarian. Moreover, the TGI is 29.3 µM with NCI-H226 lung and 4.72 µM in the experiment on SK-MEL-2 melanoma.

Take `Cc1cc(NC(=O)CCc2ccc(N3C(N)=NC(N)=NC3(C)C)cc2)ccc1S(=O)(=O)F`: the GI50 is 0.172 µM in the experiment on LOX IMVI melanoma; 0.146 µM in the experiment on SW-620 colon; 0.464 µM with RPMI-8226 leukemia; 12.2 µM in the experiment on OVCAR-3 ovarian; 1 µM in the experiment with SF-539 CNS; more than 100 µM with NCI/ADR-RES ovarian. Moreover, the GI50 is 18.4 µM in the experiment on NCI-H226 lung and more than 55.9 µM in the experiment with SK-MEL-2 melanoma. The TGI is more than 100 µM with LOX IMVI melanoma; more than 100 µM with SW-620 colon; more than 100 µM in the experiment on RPMI-8226 leukemia; more than 100 µM in the experiment on OVCAR-3 ovarian; 26.4 µM in the experiment on SF-539 CNS; more than 100 µM in the experiment with NCI/ADR-RES ovarian. The TGI in the experiment with NCI-H226 lung and in the experiment on SK-MEL-2 melanoma was more than 100 µM each time.

With `O=[N+]([O-])c1ccc(N(CCO)CCO)c2c1no[n+]2[O-]`, the GI50 with LOX IMVI melanoma is 1.03 µM; in the experiment on SW-620 colon it was 1.32 µM; in the experiment on RPMI-8226 leukemia, 1.22 µM; in the experiment with OVCAR-3 ovarian it was 1.51 µM; with SF-539 CNS, 1.26 µM; in the experiment on NCI/ADR-RES ovarian it was 1.44 µM. Also, the GI50 is 2.01 µM in the experiment on NCI-H226 lung and 1.8 µM in the experiment with SK-MEL-2 melanoma. In addition, the TGI was found to be 2.43 µM with LOX IMVI melanoma; 3.71 µM with SW-620 colon; 4.08 µM in the experiment on RPMI-8226 leukemia; 3.91 µM with OVCAR-3 ovarian; 2.77 µM with SF-539 CNS; 6.41 µM with NCI/ADR-RES ovarian. Further, the figures for the TGI in the experiment with NCI-H226 lung and in the experiment with SK-MEL-2 melanoma were 6.59 µM and 4.78 µM, respectively.

Take `Cc1ccnc2c1NC(=O)c1cccnc1N2C1CC1`: the GI50 in the experiment on LOX IMVI melanoma, in the experiment on SW-620 colon, with RPMI-8226 leukemia, with OVCAR-3 ovarian, with SF-539 CNS and in the experiment with NCI/ADR-RES ovarian was more than 100 µM in each case. Also, the GI50 in the experiment on NCI-H226 lung and in the experiment on SK-MEL-2 melanoma was more than 100 µM throughout. The TGI in the experiment on LOX IMVI melanoma, in the experiment on SW-620 colon, with RPMI-8226 leukemia, with OVCAR-3 ovarian, in the experiment with SF-539 CNS and with NCI/ADR-RES ovarian was more than 100 µM in each case. Moreover, the TGI with NCI-H226 lung and in the experiment with SK-MEL-2 melanoma was more than 100 µM throughout.

Turning to `C#C[C@]1(O)CC[C@H]2[C@@H]3CC=C4c5nc(Nc6ccc(OC)cc6OC)sc5CC[C@]4(C)[C@H]3CC[C@@]21C`, the GI50 was 1.45 µM in the experiment with LOX IMVI melanoma; 1.55 µM in the experiment with SW-620 colon; 0.248 µM in the experiment with RPMI-8226 leukemia; 1.58 µM in the experiment with OVCAR-3 ovarian; 0.374 µM in the experiment on SF-539 CNS; 2.36 µM in the experiment on NCI/ADR-RES ovarian. For the same compound, the GI50 with NCI-H226 lung was 2.3 µM; in the experiment with SK-MEL-2 melanoma, 1.23 µM. Also, the TGI in the experiment with LOX IMVI melanoma is 2.97 µM; in the experiment with SW-620 colon, 3.71 µM; in the experiment with RPMI-8226 leukemia, 0.804 µM; with OVCAR-3 ovarian, 3.74 µM; in the experiment with SF-539 CNS, 1.7 µM; in the experiment with NCI/ADR-RES ovarian, 17 µM. The TGI is 6.23 µM in the experiment on NCI-H226 lung and 6.39 µM in the experiment on SK-MEL-2 melanoma.
